Where two headings read alike, the source gives them in different places. No end group written: not given here.
Experiments:
[1] = target: T1, PSB‐I^143–238 construct (peptide‐substrate–binding domain of C‐P4H‐I α‐subunit) (Homo sapiens, UniProt P13674); assay: ITC binding of proline‐rich peptides to the PSB‐I^143–238 construct; details: 25°C, 20 mM Bis‐Tris, 100 mM glycine; for ΔG / ΔH / −TΔS: pH 6.8, fixed n = 1, average ± SD of three measurements
T1 construct: made in house; host or cells: E. coli Rosetta(DE3)pLysS, pET22b(+)
Excerpt: The PSB‐I^143–238 construct was cloned using standard molecular biology protocols, and a codon‐optimized P4ha1 cDNA for the full‐length C‐P4H‐I α‐subunit (GenScript Biotech Corporation, New Jersey, USA) was used as the template. This construct was amplified using a forward primer containing an NdeI site (underlined) (5′‐[…]‐3′) and a reverse primer containing an XhoI site (underlined) (5′‐[…]‐3′). The amplified product was digested with NdeI and XhoI and ligated into a pET22b(+) plasmid (Novagen, Wisconsin, USA) in‐frame with a C‐terminal His6‐tag, and its sequence (Ser143‐Glu238 (Figure 1A), with C‐terminal Leu‐Glu‐His6–tag) was verified by DNA sequencing in the Biocenter Oulu Sequencing Centre. PSB‐I^143–238 was expressed using Rosetta(DE3)pLysS cells in LB medium containing 100 μg/mL ampicillin and 34 μg/mL chloramphenicol. The cells were grown at 37°C using a shaker at 200 rpm until the OD600 reached 0.6–0.8, after which protein expression was induced using 1‐mM isopropyl β‐D‐1‐thiogalactopyranoside and incubated at 30°C for another 4 h. The cells were harvested and resuspended in 20 mL of 20‐mM Bis‐Tris, 100 mM glycine, pH 6.8 lysis buffer. After cell lysis by sonication, the supernatant was loaded onto a 20 mL Ni‐NTA chelating Sepharose column, pre‐equilibrated with the lysis buffer. Unbound proteins were washed away with 100 mL of the same buffer, and the bound proteins were eluted with a 100 mL linear imidazole gradient (0.0–0.5 M). The eluted fractions were analyzed by SDS‐PAGE to identify PSB‐I containing fractions, which were pooled, concentrated using the Amicon ultracentrifugal filter ([…] molecular weight cut‐off) and loaded on a Superdex75 16/600 preparative grade size‐exclusion chromatography (SEC) column (GE Healthcare, Chicago, USA), pre‐equilibrated with a 20 mM Bis‐Tris, 100 mM glycine, pH 6.8, SEC buffer. Fractions with PSB‐I^143–238 of high purity, based on SDS‐PAGE analysis, were pooled and concentrated to about 22 mg/mL (measured with a NanoDrop 1000, Thermo Scientific, Waltham, USA) and stored in the SEC buffer in 100 μL aliquots at −70°C. All characterizations, crystallization, and crystal testing experiments described below were performed in the Biocenter Oulu core facilities.
(§1) The peptides used in these studies were purchased from TAG Copenhagen A/S (Frederiksberg, Denmark). These peptides (9 residues) start with a free amino group and end with a free carboxylate group. The correct mass and the purity of the peptides (> 95% pure) were analyzed by the company using HPLC and mass spectrometry.
The protein samples of the PSB‐I^143–238 and PSB‐II constructs were prepared at a concentration of 50 μM in SEC buffer, being 20 mM Bis‐Tris, 100 mM glycine, pH 6.8 for PSB‐I^143–238 and 20 mM Tris, 50 mM NaCl, 50 mM glycine, pH 8.0 for PSB‐II (as described earlier). The peptides were dissolved in SEC buffer at a concentration of 3 mM by diluting a 100 mM stock solution in water with SEC buffer. The ITC measurements were carried out at 25°C, using the MicroCal iTC‐200 (Malvern Panalytical Ltd., Malvern, UK). The peptide solution was titrated into a sample cell of 200 μL volume from a syringe that was rotating at 750 rpm. First, 0.4 μL of the peptide solution was injected with a duration of 0.8 s; then, 12 consecutive injections were done, each with a volume of 3 μL, a duration of 6 s, and 180 s spacing time between each injection. For each peptide, at first only buffer in the sample cell (without protein) was titrated, and data were collected as control. Then the data for the PSB sample titrated with the peptide‐containing buffer were collected. The titration data were processed with Origin 7 (OriginLab, Massachusetts, USA) specifically designed for ITC data analysis. The control data that measured the residual heat effect from the peptide dilution were subtracted from the data of the peptide titration with PSB in the sample cell. […]

[2] = target: T2, PSB‐II^142–236 construct (peptide‐substrate–binding domain of C‐P4H‐II α‐subunit) (Homo sapiens, UniProt O15460); assay: ITC binding of proline‐rich peptides to the PSB‐II construct; details: 25°C, 50 μM protein, 3 mM peptide, 20 mM Tris, 50 mM NaCl, 50 mM glycine, pH 8.0, one‐set‐of‐sites, fixed n = 1, average ± SD of three measurements
T2 construct: Met-His6 (N); made in house
Excerpt: Additional experiments were done with a longer PSB‐I construct, PSB‐I^144–244 (residues Phe144‐Ser244 (Figure 1A), extended by a C‐terminal Leu‐Glu‐(His)6–tag) and with the PSB‐II^142–236 construct (residues Met142‐Glu236 (Figure 1A), preceded at the N‐terminus by a Met‐His6–tag). The expression and purification protocols for the PSB‐I^144–244 construct and the PSB‐II^142–236 construct have been described earlier.
as §1
The protein samples of the PSB‐I^143–238 and PSB‐II constructs were prepared at a concentration of 50 μM in SEC buffer, being 20 mM Bis‐Tris, 100 mM glycine, pH 6.8 for PSB‐I^143–238 and 20 mM Tris, 50 mM NaCl, 50 mM glycine, pH 8.0 for PSB‐II (as described earlier). […] The control data that measured the residual heat effect from the peptide dilution were subtracted from the data of the peptide titration with PSB in the sample cell. The integrated data were analyzed using the one‐set‐of‐sites fitting model with a fixed stoichiometry (n = 1). […]

PSB‐II construct = details: previous C‐P4H peptide binding studies; cited from earlier work
Excerpt: (§2) Prolines that occur in the PxGP motif cannot be hydroxylated by the C‐P4H catalytic domain, as they are in the X‐position of the XYG‐repeat and the x‐residue at the Y‐position cannot be a proline. […] Low affinity of the (Gly‐Pro‐4Hyp)5 peptide for the PSB co ...

PSB‐I construct = details: previous C‐P4H peptide binding studies; cited from earlier work
Excerpt: as §2

C‐P4H‐I = details: cited from earlier work
Excerpt: as §2

C‐P4H‐II = details: cited from earlier work
Excerpt: as §2

[3] = target: T2, PSB‐II^142–236 construct (peptide‐substrate–binding domain of C‐P4H‐II α‐subunit); details: ITC, data described previously, average ± SD of three measurements; cited from earlier work
[4] = target: DD‐I construct (double domain construct of the α‐subunit of C‐P4H‐I); details: calorimetric binding, reported previously; read-out: Affinity (K D) for the PSB‐I domain of the DD‐I construct; cited from earlier work
Excerpt: The affinity properties of the PSB‐I and PSB‐II constructs, as obtained from ITC peptide binding experiments, are shown in Table 2 and Figure S3.

T1 sequence (P13674 160-255): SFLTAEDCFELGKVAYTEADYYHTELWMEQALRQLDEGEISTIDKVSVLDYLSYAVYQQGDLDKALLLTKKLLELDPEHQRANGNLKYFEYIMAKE
T2 sequence (O15460 163-257): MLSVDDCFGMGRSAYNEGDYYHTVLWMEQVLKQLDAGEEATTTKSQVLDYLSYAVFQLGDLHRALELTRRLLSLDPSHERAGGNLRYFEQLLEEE

| Molecule | ΔG [1] [kcal/mol] | ΔH [1] [kcal/mol] | −TΔS [1] [kcal/mol] | also measured |
| --- | --- | --- | --- | --- |
| (Gly‐Pro‐4Hyp)5 [model peptide with a hydroxyproline at the Y‐position of each tripeptide repeat] |  |  |  | Affinity for the PSB‐II construct relative to (PPG)5 (PSB‐II construct): much lower affinity than the (PPG)5 substrate peptide; Affinity for the PSB‐I construct relative to (PPG)5 (PSB‐I construct): much lower affinity than the (PPG)5 substrate peptide; Substrate of C‐P4H‐I (C‐P4H‐I): not a substrate; Substrate of C‐P4H‐II (C‐P4H‐II): not a substrate |
| PPGPPGPPG [(PPG)3, PPG‐PPG‐PPG peptide] | -4.83 ± 0.06 | -13.6 ± 1.7 | 8.77 ± 1.66 | K D [3]: Not detectable; Kd [4]: 144 µM |
| PPPPPPPPP [P9, (Pro)9 peptide] | -5.59 ± 0.10 | -9.5 ± 0.8 | 3.95 ± 0.82 | Kd [3]: > 1500 µM; Kd [4]: 9.8 µM |

The next lines start with results.

| ΔG [1] [kcal/mol] | ΔH [1] [kcal/mol] | −TΔS [1] [kcal/mol] | Molecule | also measured |
| --- | --- | --- | --- | --- |
| -5.60 ± 0.08 | -12.7 ± 0.2 | 7.07 ± 0.25 | C[C@H](NC(=O)[C@@H]1CCCN1C(=O)CNC(=O)[C@@H]1C[C@@H](O)CN1C(=O)[C@@H]1CCCN1)C(=O)NCC(=O)N1CCC[C@H]1C(=O)N1C[C@H](O)C[C@H]1C(=O)NCC(=O)O [POG‐PAG‐POG] | Kd ([1]; 50 μM protein in cell, 3 mM peptide in syringe, pH 6.8, one‐set‐of‐sites model, fixed n = 1, average ± SD of three measurements): 79.6 ± 9.6 µM; Kd [2]: 26.2 ± 1.9 µM |
| -5.51 ± 0.02 | -12.4 ± 0.5 | 6.86 ± 0.49 | C[C@H](NC(=O)[C@@H]1CCCN1C(=O)CNC(=O)[C@@H]1CCCN1C(=O)[C@@H]1CCCN1)C(=O)NCC(=O)N1CCC[C@H]1C(=O)N1CCC[C@H]1C(=O)NCC(=O)O [PPG‐PAG‐PPG] |  |
| -5.57 ± 0.02 | -13.2 ± 1.2 | 7.67 ± 1.17 | PPGPEGPPG [PPG‐PEG‐PPG] |  |
| -6.06 ± 0.04 | -14.9 ± 0.4 | 8.87 ± 0.37 | PPGPRGPPG [PPG‐PRG‐PPG] |  |

— article PMC12433258, “Binding Differences of the Peptide‐Substrate–Binding Domain of Collagen Prolyl 4‐Hydroxylases I and II for Proline‐ and Hydroxyproline‐Rich Peptides” (Proteins, 2025)
